Measurements as given in PMC12250624, “Anti-Amyloid Aggregation Effects of Gobaishi (Galla chinensis) and Its Active Constituents” (Molecules, 2025).

Molecular target: T1, Aβ42 (amyloid-beta) (Homo sapiens, UniProt P05067)
T1 construct: gene APP; Aβ42
Test: ThT fibril aggregation assay, […] Aβ[…] h at […] °C
Format: biochemical

T1 sequence (P05067 672-713): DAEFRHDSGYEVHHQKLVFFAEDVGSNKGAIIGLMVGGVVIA

For `O=C(/C=C/c1ccc(O)c(O)c1)O[C@H](Cc1ccc(O)c(O)c1)C(=O)O` [Rosmarinic acid], the EC50 was 15 µM.
